Measurements published in patent publication US6734139B1, “N-aryl-uracile-based herbicides” (priority 1999, dated 2004).
Values joined by “and” are separate entries in the source; they are usually repeats but may differ in a detail not shown here. Equal values may be shown once.

Key:
Format in all cases: in vivo
Galium [1] = assay: Pre-emergence test (herbicidal action, Colby): Galium
Bromus = assay: Pre-emergence test (herbicidal action, Colby): Bromus
Eriochloa = assay: Pre-emergence test (herbicidal action, Colby): Eriochloa
Matricaria [2] = assay: Pre-emergence test (herbicidal action, Colby): Matricaria; conditions: 125 g of a.i./ha
Chenopodium [3] = assay: Pre-emergence test (herbicidal action, Colby): Chenopodium
Lolium = assay: Pre-emergence test (herbicidal action, Colby): Lolium
Setaria = assay: Pre-emergence test (herbicidal action, Colby): Setaria
Cassia = assay: Pre-emergence test (herbicidal action, Colby): Cassia
Abutilon [4] = assay: Pre-emergence test (herbicidal action, Colby): Abutilon; conditions: for pest or weed control at 30 g/ha: 30 g of a.i./ha; for pest or weed control at 30 g/ha / pest or weed control at 60 g/ha: read-out: Abutilon; for pest or weed control at 60 g/ha: 60 g of a.i./ha; for pest or weed control at 125 g/ha: 125 g of a.i./ha
Echinochloa = assay: Pre-emergence test (herbicidal action, Colby): Echinochloa
Ipomoea = assay: Pre-emergence test (herbicidal action, Colby): Ipomoea
Stellaria = assay: Pre-emergence test (herbicidal action, Colby): Stellaria
weeds = assay: Pre-emergence test (herbicidal action against weeds, Colby)
Description: (§1) The expected action for a given combination of two herbicides can be calculated as follows (cf. COLBY, S. R.: “Calculating synergistic and antagonistic responses of herbicide combinations”, Weeds 15, Pages 20-22, 1967):
(§2) If the actual damage exceeds the calculated value, the combination has a superadditive effect, that is to say a synergistic effect.
The theoretically expected activity for a given combination of three herbicides can likewise be found in the literature mentioned above.
Solvent: 2 to 3 parts by weight of acetone or N,N-dimethyl-formamide
Emulsifier: 1 part by weight of alkylaryl polyglycol ether
(§3) To produce a suitable preparation of active compound, 1 part by weight of active compound is mixed with the stated amount of solvent, the stated amount of emulsifier is added and the concentrate is diluted with water to the desired concentration. Formulated products are dissolved in water and then diluted with water to the desired concentration.
(§4) The solutions of the other mixing components (active compounds or safeners) are prepared analogously. The separately prepared solutions of the various mixing components are then combined and, if appropriate, additional substances (formulation auxiliaries, additives, etc.) are added and, if appropriate, water is added to prepare the desired dilution.
Seeds of the test plants are sown in standard soil. After 24 hours, the soil is sprayed with the preparation of active compound such that the particular amount of active compound desired in each case is applied per unit area. The concentration of active compound in the spray liquor is chosen such that the particular amount of active compound desired in each case is applied in 500 litres of water per hectare. The containers with the test plants are kept in a greenhouse at controlled temperature and controlled illumination until evaluation.
(§5) After three weeks, the degree of damage to the plants is rated in % damage in comparison to the development of the untreated control. The figures denote
(§6) 0%=no effect/no damage (like untreated control)

Digitaria = assay: Pre-emergence test (herbicidal action, Colby): Digitaria
Datura [5] = assay: Pre-emergence test (herbicidal action, Colby): Datura
Polygonum [6] = assay: Pre-emergence test (herbicidal action, Colby): Polygonum
Alopecurus = assay: Pre-emergence test (herbicidal action, Colby): Alopecurus
Amaranthus = assay: Post-emergence test (herbicidal action, Colby): Amaranthus
Galium [7] = assay: Post-emergence test (herbicidal action, Colby): Galium
Matricaria [8] = assay: Post-emergence test (herbicidal action, Colby): Matricaria; conditions: 125 g of a.i./ha
Solanum = assay: Post-emergence test (herbicidal action, Colby): Solanum
Description: as §1, §2, §3, §4, §5, §6

Datura [9] = assay: Post-emergence test (herbicidal action, Colby): Datura
Chenopodium [10] = assay: Post-emergence test (herbicidal action, Colby): Chenopodium; conditions: 60 g of a.i./ha
Abutilon [11] = assay: Post-emergence test (herbicidal action, Colby): Abutilon; conditions: 60 g of a.i./ha
Veronica = assay: Post-emergence test (herbicidal action, Colby): Veronica
Description: as §1, §2, §3, §4, §5, §6

Polygonum [12] = assay: Post-emergence test (herbicidal action, Colby): Polygonum; conditions: 125 g of a.i./ha
Viola = assay: Pre-emergence test (herbicidal action, Colby): Viola; conditions: 125 g of a.i./ha

## CC(C)N(C(=O)COc1nnc(C(F)(F)F)s1)c1ccc(F)cc1 [flufenacet, N-(4-fluoro-phenyl)-N-i-propyl-2-(5-trifluoromethyl-1,3,4-thiadiazol-2-yl-oxy)-acetamide]
Galium [1]; 30 g of a.i./ha
  Galium: 30%
Bromus; 60 g of a.i./ha
  Bromus: 30%
Eriochloa; 30 g of a.i./ha
  Eriochloa: 80%
Matricaria [2]
  Matricaria: 60%
Chenopodium [3]; 30 g of a.i./ha
  Chenopodium: 30%
Chenopodium [3]; 60 g of a.i./ha
  Chenopodium: 50%
Lolium; 60 g of a.i./ha
  Lolium: 80%
Setaria; 30 g of a.i./ha
  Setaria: 70%
Setaria; 60 g of a.i./ha
  Setaria: 80% and 90%
Cassia; 60 g of a.i./ha
  Cassia: 60%
Abutilon [4]
  pest or weed control at 30 g/ha: 20%
  pest or weed control at 60 g/ha: 20%
  pest or weed control at 125 g/ha: 20%
Echinochloa; 60 g of a.i./ha
  Echinochloa: 90%
Ipomoea; 30 g of a.i./ha
  Ipomoea: 30%
Ipomoea; 60 g of a.i./ha
  Ipomoea: 30%
Ipomoea; 125 g of a.i./ha
  Ipomoea: 30%
Stellaria; 60 g of a.i./ha
  Stellaria: 50%
Stellaria; 125 g of a.i./ha
  Stellaria: 70%
weeds; Table 23, 30 g of a.i./ha
  Chenopodium (pre-emergence test): 30
  Ipomoea (pre-emergence test): 50
  Lolium (pre-emergence test): 70
  Setaria (pre-emergence test): 70
weeds; Table 23, 60 g of a.i./ha
  Chenopodium (pre-emergence test): 50
  Eriochloa (pre-emergence test): 90
  Galium (pre-emergence test): 40
  Setaria (pre-emergence test): 90
weeds; Table A21, 60 g of a.i./ha
  Chenopodium (pre-emergence test): 50
  Ipomoea (pre-emergence test): 70
  Polygonum (pre-emergence test): 0
weeds; Table A21, 125 g of a.i./ha
  Datura (pre-emergence test): 50
  Ipomoea (pre-emergence test): 80
  Polygonum (pre-emergence test): 30
Digitaria; 30 g of a.i./ha
  Digitaria: 80%
Digitaria; 60 g of a.i./ha
  Digitaria: 80%
Datura [5]; 30 g of a.i./ha
  Datura: 20%
Datura [5]; 60 g of a.i./ha
  Datura: 40%
Polygonum [6]; 30 g of a.i./ha
  Polygonum: 20%
Polygonum [6]; 60 g of a.i./ha
  Polygonum: 30%
Alopecurus; 60 g of a.i./ha
  Alopecurus: 70%

## CSc1nnc(C(C)(C)C)c(=O)n1N [metribuzin, 4-amino-6-tert-butyl-3-methylthio-1,2,4-triazin-5(4H)-one]
Galium [1]; 60 g of a.i./ha
  Galium: 0%
Bromus; 30 g of a.i./ha
  Bromus: 0%
Chenopodium [3]; 60 g of a.i./ha
  Chenopodium: 50%
Abutilon [4]
  pest or weed control at 30 g/ha: 80%
  pest or weed control at 60 g/ha: 90%
Echinochloa; 60 g of a.i./ha
  Echinochloa: 0%
Echinochloa; 125 g of a.i./ha
  Echinochloa: 80%
Ipomoea; 30 g of a.i./ha
  Ipomoea: 0%
weeds; Table 23, 30 g of a.i./ha
  Chenopodium (pre-emergence test): 30
  Lolium (pre-emergence test): 0
  Setaria (pre-emergence test): 20
weeds; Table 23, 60 g of a.i./ha
  Eriochloa (pre-emergence test): 0
  Galium (pre-emergence test): 20
  Ipomoea (pre-emergence test): 0
  Setaria (pre-emergence test): 80
weeds; Table A26, 60 g of a.i./ha
  Cassia (pre-emergence test): 80
  Echinochloa (pre-emergence test): 30
  Matricaria (pre-emergence test): 60
weeds; Table A26, 125 g of a.i./ha
  Avena (pre-emergence test): 40
  Digitaria (pre-emergence test): 90
  Echinochloa (pre-emergence test): 80
  Lolium (pre-emergence test): 70
  Matricaria (pre-emergence test): 70
  Setaria (pre-emergence test): 80
Digitaria; 30 g of a.i./ha
  Digitaria: 30%
Digitaria; 60 g of a.i./ha
  Digitaria: 80%
Datura [5]; 30 g of a.i./ha
  Datura: 20%
Datura [5]; 60 g of a.i./ha
  Datura: 30%
Polygonum [6]; 60 g of a.i./ha
  Polygonum: 40%
Alopecurus; 30 g of a.i./ha
  Alopecurus: 0%

## O=C(O)COc1ccc(Cl)cc1Cl [2,4-D, 2,4-dichloro-phenoxyacetic acid]
Amaranthus; 86 g of a.i./ha
  Amaranthus: 30%
Galium [7]; 86 g of a.i./ha
  Galium: 0%

## Cc1nn(-c2cc(NS(C)(=O)=O)c(Cl)cc2Cl)c(=O)n1C(F)F [sulfentrazone, 2-(2,4-dichloro-5-methylsulphonylamino-phenyl)-4-difluoromethyl-5-methyl-2,4-dihydro-3H-1,2,4-triazol-3-one]
Matricaria [8]
  Matricaria: 0%
Solanum; 60 g of a.i./ha
  Solanum: 0%
Solanum; 125 g of a.i./ha
  Solanum: 0%
Datura [9]; 60 g of a.i./ha
  Datura: 0%
Datura [9]; 125 g of a.i./ha
  Datura: 0%
Chenopodium [10]
  Chenopodium: 60%
Abutilon [11]
  Abutilon: 0%
Amaranthus; 60 g of a.i./ha
  Amaranthus: 90%
Veronica; 60 g of a.i./ha
  Veronica: 0%
Veronica; 125 g of a.i./ha
  Veronica: 20%
Galium [7]; 60 g of a.i./ha
  Galium: 0%
Polygonum [12]
  Polygonum: 50%

## CC(C)c1nn(C(=O)NC(C)(C)C)c(=O)n1N [amicarbazone, 4-amino-N-(1,1-dimethyl-ethyl)-4,5-dihydro-3-(1-methyl-ethyl)-5-oxo-1H-1,2,4-triazole-1-carboxamide]
Eriochloa; 30 g of a.i./ha
  Eriochloa: 30%
Eriochloa; 60 g of a.i./ha
  Eriochloa: 70%
Chenopodium [3]; 30 g of a.i./ha
  Chenopodium: 50%
Lolium; 30 g of a.i./ha
  Lolium: 0%
Setaria; 30 g of a.i./ha
  Setaria: 20%
Setaria; 60 g of a.i./ha
  Setaria: 20% and 30%
Cassia; 30 g of a.i./ha
  Cassia: 70%
Abutilon [4]
  pest or weed control at 30 g/ha: 20%
  pest or weed control at 60 g/ha: 99%
Echinochloa; 60 g of a.i./ha
  Echinochloa: 0%
Ipomoea; 30 g of a.i./ha
  Ipomoea: 50%
weeds; Table A22, 60 g of a.i./ha
  Cassia (pre-emergence test): 80
weeds; Table A22, 125 g of a.i./ha
  Datura (pre-emergence test): 50
  Polygonum (pre-emergence test): 90
Digitaria; 30 g of a.i./ha
  Digitaria: 20%
Digitaria; 60 g of a.i./ha
  Digitaria: 60%
Datura [5]; 30 g of a.i./ha
  Datura: 0%
Datura [5]; 60 g of a.i./ha
  Datura: 20%
Polygonum [6]; 60 g of a.i./ha
  Polygonum: 80%
Alopecurus; 60 g of a.i./ha
  Alopecurus: 20%

## CC(C)N.O=C(O)CNCP(=O)(O)O [glyphosate-isopropylammonium, N-phosphonomethyl-glycine (isopropylammonium salt)]
Galium [7]; 125 g of a.i./ha
  Galium: 0%

## CCc1cccc(C)c1N(C(=O)CCl)[C@@H](C)COC [metolachlor, (S)-2-chloro-N-(2-ethyl-6-methyl-phenyl)-N-(2-methoxy-1-methylethyl)-acetamide]
Viola
  Viola: 50%
Abutilon [4]
  pest or weed control at 125 g/ha: 30%
Abutilon [4]; 250 g of a.i./ha
  pest or weed control at 250 g/ha: 30%
Ipomoea; 250 g of a.i./ha
  Ipomoea: 30%
Stellaria; 125 g of a.i./ha
  Stellaria: 30%
Stellaria; 250 g of a.i./ha
  Stellaria: 80%
Digitaria; 250 g of a.i./ha
  Digitaria: 90%
